Data set [1] relates to HIV-IIIb. As to the kind of experiment: Antiviral assay in MT-2 / MT-4 cells infected with HIV-IIIb (CellTiter-Glo readout). The format is cell-based. Particulars: MT4, 120 h, 5 days, MT-2 or MT-4 cells not given. Here is the method:
For the antiviral assay utilizing MT-2 cells, 50 μl of 2× test concentration of 5-fold serially diluted compound in culture medium with 10% FBS was added to each well of a 96-well plate (9 concentrations) in triplicate. MT-2 cells were infected with HIV-IIIb at a multiplicity of infection (m.o.i) of 0.01 for 3 hours. Fifty microliters of infected cell suspension in culture medium with 10% FBS (˜1.5×10^4 cells) was then added to each well containing 50 μl of diluted compound. The plates were then incubated at 37° C. for 5 days. For the antiviral assay utilizing MT-4 cells, 20 μl of 2× test concentration of 5-fold serially diluted compound in culture medium with 10% FBS was added to each well of a 384-well plate (7 concentrations) in triplicate. MT-4 cells were next mixed with HIV-IIIb at an m.o.i. of 0.1 and 20 μl of virus/cell mixture (˜2000 cells) was immediately added to each well containing 20 μl of diluted compound. The plates were then incubated at 37° C. for 5 days. After 5 days of incubation, 100 μl of CellTiter-Glo™ Reagent (catalog #G7571, Promega Biosciences, Inc., Madison, Wis.) was added to each well containing MT-2 cells and 40 μl to each well containing MT-4 cells. Cell lysis was carried out by incubation at room temperature for 10 min and chemiluminescence was read.
In general terms: ATP-based viability assays read luminescence as a measure of living cells.

Data set [2] can be described thus: Cytotoxicity assessment in uninfected MT-2 / MT-4 cells. Particulars: human, MT-2 or MT-4 cells not given. The format is cell-based. On the procedure: For compound cytotoxicity assessment in MT-2 cells, the protocol was identical to that of the antiviral assay in MT-2 cells, except that uninfected cells and a 3-fold serial dilution of compounds were used. For cytotoxicity assessment in MT-4 cells, the protocol is identical to that of the antiviral assay in MT-4 cells, except that no virus was added. Cytotoxicity is expressed as CC50.

The text below walks through data of patent publication US20110184029A1, “PYRIDONE DERIVATIVES AS NON-NUCLEOSIDE REVERSE TRANSCRIPTASE INHIBITORS” (KOREA RESEARCH INSTITUTE OF CHEMICAL TECHNOLOGY, priority 2008, published 2011).

The EC50 is the concentration that produces a half-maximal response. A word on the melting point: it is the temperature of the solid-liquid transition. In general, CC50 refers to the concentration that lowers cell viability or growth by half.

`Cc1cc(C#N)cc(C(=O)c2c(CC3CC3)c(C)[nH]c(=O)c2C(C)C)c1` [Example 1, 3-(5-Cyclopropylmethyl-3-isopropyl-6-methyl-2-oxo-1,2-dihydro-pyridine-4-carbonyl)-5-methyl-benzonitrile] showed a melting point of 222 to 224 °C. In addition, the EC50 in data set [1] is less than 100 nM.

With `Cc1[nH]c(=O)c(C(C)C)c(C(=O)c2cc(C#N)cc(C#N)c2)c1CC1CC1` [Example 2, 5-(5-Cyclopropylmethyl-3-isopropyl-6-methyl-2-oxo-1,2-dihydro-pyridine-4-carbonyl)-isophthalonitrile], the melting point was in the range of 266 to 267 °C. In data set [1], this compound came in with an EC50 of less than 100 nM. Turning to `Cc1[nH]c(=O)c(C(C)C)c(C(=O)c2cc(Cl)cc(C#N)c2)c1CC1CC1` [Example 3, 3-Chloro-5-(5-cyclopropylmethyl-3-isopropyl-6-methyl-2-oxo-1,2-dihydro-pyridine-4-carbonyl)-benzonitrile], the melting point lay within 237 to 238 °C. Further, the EC50 in data set [1] is less than 100 nM. Take `Cc1cc(C#N)cc(C(=O)c2c(CC3(CO)CC3)c(C)[nH]c(=O)c2C(C)C)c1` [Example 5, 3-[5-(1-Hydroxymethyl-cyclopropylmethyl)-3-isopropyl-6-methyl-2-oxo-1,2-dihydro-pyridine-4-carbonyl]-5-methyl-benzonitrile]: the EC50 in data set [1] was less than 100 nM. The compound `Cc1[nH]c(=O)c(C(C)C)c([S+]([O-])c2cc(C#N)cc(C#N)c2)c1CC1CC1` (stereo not shown) [Example 6, 5-(5-Cyclopropylmethyl-3-isopropyl-6-methyl-2-oxo-1,2-dihydro-pyridin-4-sulfinyl)-isophthalonitrile] registered an EC50 in data set [1] of less than 100 nM. In data set [2], the cytotoxic concentration (CC50) at 5 days was greater than 100000 nM. As for `Cc1cc(C#N)cc(Sc2c(CC3CC3)c(C)[nH]c(=O)c2C(C)C)c1` [Example 7, 3-(5-(cyclopropylmethyl)-3-isopropyl-6-methyl-2-oxo-1,2-dihydropyridin-4-ylthio)-5-methylbenzonitrile], the half-maximal effective concentration (EC50) in data set [1] was less than 100 nM.

Compound `Cc1cc(C#N)cc([S+]([O-])c2c(CC3CC3)c(C)[nH]c(=O)c2C(C)C)c1` (stereo not shown) [Example 8, 3-(5-(cyclopropylmethyl)-3-isopropyl-6-methyl-2-oxo-1,2-dihydropyridin-4-ylsulfinyl)-5-methylbenzonitrile] yielded an EC50 in data set [1] of less than 100 nM. On to `Cc1cc(C#N)cc(S(=O)(=O)c2c(CC3CC3)c(C)[nH]c(=O)c2C(C)C)c1` [Example 9, 3-(5-Cyclopropylmethyl-3-isopropyl-6-methyl-2-oxo-1,2-dihydro-pyridine-4-sulfonyl)-5-methyl-benzonitrile], for which the half-maximal effective concentration (EC50) in data set [1] is less than 100 nM. Further, the CC50 at 5 days in data set [2] was greater than 69000 nM.

With `Cc1[nH]c(=O)c(C(C)C)c(C(=O)c2cc(C#N)cc(C(N)=O)c2)c1CC1CC1` [Example 10, 3-Cyano-5-(5-cyclopropylmethyl-3-isopropyl-6-methyl-2-oxo-1,2-dihydro-pyridine-4-carbonyl)-benzamide], the EC50 in data set [1] was less than 100 nM.

`Cc1cc(C#CCO)cc(C(=O)c2c(CC3CC3)c(C)[nH]c(=O)c2C(C)C)c1` [Example 11, 5-(cyclopropylmethyl)-4-(3-(3-hydroxyprop-1-ynyl)-5-methylbenzoyl)-3-isopropyl-6-methylpyridin-2 (1H)-one]: in data set [1], the EC50 was less than 100 nM. On to `Cc1[nH]c(=O)c(C(C)C)c(C(=O)c2cc(C#N)cc(C#CCO)c2)c1CC1CC1` [Example 12, 3-(5-Cyclopropylmethyl-3-isopropyl-6-methyl-2-oxo-1,2-dihydro-pyridine-4-carbonyl)-5-(3-hydroxy-prop-1-ynyl)-benzonitrile], for which the 50% effective concentration (EC50) in data set [1] is less than 100 nM. For the compound `Cc1cc(C#N)cc(C(=O)c2c(CC3CC3)c(CO)[nH]c(=O)c2C(C)C)c1` [Example 13, 3-(5-Cyclopropylmethyl-6-hydroxymethyl-3-isopropyl-2-oxo-1,2-dihydro-pyridine-4-carbonyl)-5-methyl-benzonitrile], the EC50 in data set [1] is less than 100 nM.

Take `CC(C)c1c(C(=O)c2cc(C#N)cc(C#N)c2)c(CC2CC2)c(CO)[nH]c1=O` [Example 14, 5-(5-Cyclopropylmethyl-6-hydroxymethyl-3-isopropyl-2-oxo-1,2-dihydro-pyridine-4-carbonyl)-isophthalonitrile]: the half-maximal effective concentration (EC50) in data set [1] is less than 100 nM. The compound `Cc1cc(C#N)cc(C(=O)c2c(CC3CC3)c(CC#N)[nH]c(=O)c2C(C)C)c1` [Example 15, 3-(6-Cyanomethyl-5-cyclopropylmethyl-3-isopropyl-2-oxo-1,2-dihydro-pyridine-4-carbonyl)-5-methyl-benzonitrile] registered an EC50 in data set [1] of less than 100 nM.
